Source: US4950669A, “Methods and compositions for promoting growth of animals” (priority 1987, dated 1990)

Experiments:
[1] = 44-day floor pen study in chickens (Example XIV); type: in vivo
Protocol: A 44-day floor pen study was conducted in which n-morpholinyl-β-benzoyl-propionamide was administered in chicken feed at concentrations of 1 ppm, 2.5 ppm, 5 ppm, 10 ppm, 20 ppm, 40 ppm and 60 ppm. One group of controls received no medication in its feed, while a second control group received Bacitracin MD in its feed at 30 g/ton. Birds were fed ad libitum. There were 5 replications per treatment, 50 birds per replication. Birds were weighed to determine weight gain and feed-to-gain ration after 35 days and 44 days.

[2] = 21-day battery study in chickens (Example XIII); type: in vivo
Protocol: N-morpholinyl-β-benzoyl-propionamide was admixed with chicken feed at concentrations of 1.0 ppm, 7.5 ppm and 15 ppm. A 21-day battery study was conducted with the NMBP-containing feed. One group of controls was unmedicated, while a second control group received Bacitracin MD in its feed at 30 g/ton. The birds were fed ad libitum and weighed on days 7, 14 and 21. There were 10 birds per replication, 4 replications in controls and 2 replications per drug treatment.

[3] = 28-day chicken growth study, feed or i.m. injection (Example XII); type: in vivo, chickens
Protocol: Portions of N-morpholinyl-β-benzoyl-propionamide were admixed with chicken feed at 1 mg/kg and a 2 mg/kg, respectively. Another portion was formulated into an injectable formulation at a concentration of 2% in polyethylene glycol. The N-morpholinyl-β-benzoylpropionamide was then administered to chickens, either by i.m. injection or in feed, over 28-day period. One group of controls received no medication, while another group of controls received Bacitracin MD in its feed at 30 g/ton. Those chickens receiving intramuscular injections were injected once a week with a dosage of either 1 mg/kg or 2 mg/kg, based on body weight. Birds were weighed on days 0, 14 and 28.

[4] = six-week swine feeding study, weanling barrows (Example XI); type: in vivo; conditions: six weeks; for daily feed (rel.) / Avg. daily gain (rel.): control = 100; for Avg. daily gain / Avg. daily gain (rel.): swine feed
Protocol: N-morpholinyl-β-benzoyl-propionamide was admixed with swine feed at 20 ppm and at 60 ppm. A six-week feeding study was conducted using weanling barrows. Pigs averaging 8.80 kg initially (4-5 weeks of age) were housed four pigs per pen. Test diets were fed ad libitum throughout the six-week study. Average final weight for all pigs was 27.33 kg.

[5] = acute toxicity (LD50) in the mouse; type: in vivo; conditions: for LD50: in vivo
[6] = Injection 1 mg/kg i.m. once a week, Day 14
[7] = Injection 1 mg/kg i.m. once a week, Day 28
[8] = Injection 2 mg/kg i.m. once a week, Day 14
[9] = Injection 2 mg/kg i.m. once a week, Day 28

Structure (SMILES): O=C(CCC(=O)N1CCOCC1)c1ccccc1 [NMBP, N-morpholinyl-β-benzoyl-propionamide]
- F/G ([1]; feed 1 ppm, Day 35): 1.60
- Weight Gain ([1]; feed 1 ppm, Day 35): 1379 g
- F/G ([1]; feed 1 ppm, Day 44): 1.72
- Weight Gain ([1]; feed 1 ppm, Day 44): 1917 g
- F/G ([1]; feed 2.5 ppm, Day 35): 1.55
- Weight Gain ([1]; feed 2.5 ppm, Day 35): 1431 g
- F/G ([1]; feed 2.5 ppm, Day 44): 1.69
- Weight Gain ([1]; feed 2.5 ppm, Day 44): 1961 g
- F/G ([1]; feed 5 ppm, Day 35): 1.61
- Weight Gain ([1]; feed 5 ppm, Day 35): 1381 g
- F/G ([1]; feed 5 ppm, Day 44): 1.72
- Weight Gain ([1]; feed 5 ppm, Day 44): 1929 g
- F/G ([1]; feed 10 ppm, Day 35): 1.60
- Weight Gain ([1]; feed 10 ppm, Day 35): 1356 g
- F/G ([1]; feed 10 ppm, Day 44): 1.74
- Weight Gain ([1]; feed 10 ppm, Day 44): 1883 g
- F/G ([1]; feed 20 ppm, Day 35): 1.61
- Weight Gain ([1]; feed 20 ppm, Day 35): 1364 g
- F/G ([1]; feed 20 ppm, Day 44): 1.72
- Weight Gain ([1]; feed 20 ppm, Day 44): 1901 g
- F/G ([1]; feed 40 ppm, Day 35): 1.63
- Weight Gain ([1]; feed 40 ppm, Day 35): 1334 g
- F/G ([1]; feed 40 ppm, Day 44): 1.72
- Weight Gain ([1]; feed 40 ppm, Day 44): 1898 g
- F/G ([1]; feed 60 ppm, Day 35): 1.57
- Weight Gain ([1]; feed 60 ppm, Day 35): 1334 g
- F/G ([1]; feed 60 ppm, Day 44): 1.72
- Weight Gain ([1]; feed 60 ppm, Day 44): 1875 g
- F/G ([2]; feed 1 ppm, Day 7): 1.38
- Weight Gain ([2]; feed 1 ppm, Day 7): 341 g
- F/G ([2]; feed 1 ppm, Day 14): 1.47
- Weight Gain ([2]; feed 1 ppm, Day 14): 715 g
- F/G ([2]; feed 1 ppm, Day 21): 1.62
- Weight Gain ([2]; feed 1 ppm, Day 21): 1152 g
- F/G ([2]; feed 7.5 ppm, Day 7): 1.40
- Weight Gain ([2]; feed 7.5 ppm, Day 7): 325 g
- F/G ([2]; feed 7.5 ppm, Day 14): 1.49
- Weight Gain ([2]; feed 7.5 ppm, Day 14): 697 g
- F/G ([2]; feed 7.5 ppm, Day 21): 1.60
- Weight Gain ([2]; feed 7.5 ppm, Day 21): 1113 g
- F/G ([2]; feed 15 ppm, Day 7): 1.42
- Weight Gain ([2]; feed 15 ppm, Day 7): 318 g
- F/G ([2]; feed 15 ppm, Day 14): 1.47
- Weight Gain ([2]; feed 15 ppm, Day 14): 688 g
- F/G ([2]; feed 15 ppm, Day 21): 1.54
- Weight Gain ([2]; feed 15 ppm, Day 21): 1164 g
- Average Weight ([3]; Feed 1 mg/kg, Day 0 (baseline)): 98.9 g
- Average Weight ([3]; Feed 1 mg/kg, Day 14): 462.8 g
- Feed Conversion ([3]; Feed 1 mg/kg, Day 14): 1.38
- Weight Gain ([3]; Feed 1 mg/kg, Day 14): 363.9 g
- Average Weight ([3]; Feed 1 mg/kg, Day 28): 947.6 g
- Feed Conversion ([3]; Feed 1 mg/kg, Day 28): 1.64
- Weight Gain ([3]; Feed 1 mg/kg, Day 28): 848.7 g
- Average Weight ([3]; Feed 2 mg/kg, Day 0 (baseline)): 98.5 g
- Average Weight ([3]; Feed 2 mg/kg, Day 14): 474.3 g
- Feed Conversion ([3]; Feed 2 mg/kg, Day 14): 1.38
- Weight Gain ([3]; Feed 2 mg/kg, Day 14): 375.8 g
- Average Weight ([3]; Feed 2 mg/kg, Day 28): 1013.5 g
- Feed Conversion ([3]; Feed 2 mg/kg, Day 28): 1.56
- Weight Gain ([3]; Feed 2 mg/kg, Day 28): 915.0 g
- Average Weight ([3]; Injection 1 mg/kg i.m. once a week, Day 0 (baseline)): 98.7 g
- Average Weight [3, 6]: 460.6 g
- Feed Conversion [3, 6]: 1.37
- Weight Gain [3, 6]: 361.9 g
- Average Weight [3, 7]: 938.2 g
- Feed Conversion [3, 7]: 1.61
- Weight Gain [3, 7]: 839.5 g
- Average Weight ([3]; Injection 2 mg/kg i.m. once a week, Day 0 (baseline)): 98.6 g
- Average Weight [3, 8]: 456.3 g
- Feed Conversion [3, 8]: 1.38
- Weight Gain [3, 8]: 357.7 g
- Average Weight [3, 9]: 971.4 g
- Feed Conversion [3, 9]: 1.56
- Weight Gain [3, 9]: 872.8 g
- daily feed ([4]; 20 ppm): 1.022 kg
- daily feed (rel.) ([4]; 20 ppm): 107
- daily feed ([4]; 60 ppm): 0.96 kg
- daily feed (rel.) ([4]; 60 ppm): 101
- Avg. daily gain ([4]; 20 ppm): 0.45 kg
- Avg. daily gain (rel.) ([4]; 20 ppm): 108
- Avg. daily gain ([4]; 60 ppm): 0.42 kg
- Avg. daily gain (rel.) ([4]; 60 ppm): 100
- LD50, safe limits ([5]; i.p.): 648 to 1363 mg/kg
- LD50 ([5]; ip): 940 mg/kg
- LD50 ([5]; po, per os): > 2000 mg/kg
